Reference: publication PMC8112869, “Therapeutic inhibition of keratinocyte TRPV3 sensory channel by local anesthetic dyclonine” (eLife, 2021)

Target: T1, endogenous TRPV3 channels in mouse keratinocytes (Mus musculus, UniProt Q8K424)
T1 construct: endogenous in cells; host or cells: primary epidermal keratinocytes of newborn WT C57B/6 mice
T1 sequence (Q8K424 1-791): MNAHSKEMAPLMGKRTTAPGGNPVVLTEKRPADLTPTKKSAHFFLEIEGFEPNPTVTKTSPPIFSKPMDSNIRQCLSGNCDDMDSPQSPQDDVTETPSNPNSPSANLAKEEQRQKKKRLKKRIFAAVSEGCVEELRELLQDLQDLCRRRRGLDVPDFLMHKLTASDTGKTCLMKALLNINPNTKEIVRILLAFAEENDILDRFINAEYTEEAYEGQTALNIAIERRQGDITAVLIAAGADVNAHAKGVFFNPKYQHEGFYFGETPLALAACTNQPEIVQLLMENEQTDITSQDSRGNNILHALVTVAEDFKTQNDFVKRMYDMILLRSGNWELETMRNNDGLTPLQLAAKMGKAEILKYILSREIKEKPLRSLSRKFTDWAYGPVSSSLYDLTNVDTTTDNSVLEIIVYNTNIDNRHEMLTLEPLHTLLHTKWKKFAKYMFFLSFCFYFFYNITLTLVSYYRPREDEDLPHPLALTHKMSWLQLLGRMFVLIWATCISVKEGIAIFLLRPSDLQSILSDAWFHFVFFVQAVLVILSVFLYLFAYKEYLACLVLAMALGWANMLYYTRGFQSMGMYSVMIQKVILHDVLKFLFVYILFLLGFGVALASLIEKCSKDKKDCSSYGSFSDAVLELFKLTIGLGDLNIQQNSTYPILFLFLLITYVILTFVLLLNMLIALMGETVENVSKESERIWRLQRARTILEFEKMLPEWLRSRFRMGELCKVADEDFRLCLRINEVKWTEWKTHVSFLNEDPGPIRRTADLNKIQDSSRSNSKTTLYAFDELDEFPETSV
Assay: Whole-cell recording of 2-APB-evoked TRPV3 currents in primary mouse epidermal keratinocytes
Assay type: cell-based
Conditions: for TRPV3 currents, of control level: 300 μM 2-APB, –60 mV
Protocol: The animal protocol used in this study was approved by the Institutional Animal Care and Use Committee of Wuhan University. Primary mouse keratinocytes were prepared according to the method previously described ([Luo et al., 2012]; [Pirrone et al., 2005]). Briefly, newborn WT C57B/6 mice (postnatal days 1–3) were deeply anaesthetized and decapitated and then soaked in 10% povidone-iodine, 70% ethanol, and phosphate-buffered saline (PBS) for 5 min, respectively. The skin on the back was removed and rinsed with pre-cold sterile PBS in a 100 mm Petri dish and transferred into a 2 ml tube filled with pre-cold digestion buffer containing 4 mg/ml dispase II and incubated overnight at 4°C. After treatment with dispase II for 12–18 hr, the epidermis was gently peeled off from dermis and collected. Keratinocytes were dispersed by gentle scraping and flushing with KC growth medium (Invitrogen). The resulting suspension of single cells was collected by centrifuge, and cells were seeded onto coverslips pre-coated with poly-L-lysine and maintained in complete keratinocyte serum-free growth medium (Invitrogen). Cell culture medium was refreshed every two days. Patch-clamp recordings were carried out 48 hr after plating.
Conventional whole-cell and excised patch-clamp recording methods were used. For the recombinant expressing system, green fluorescent EGFP was used as a surface marker for gene expression. Recording pipettes were pulled from borosilicate glass capillaries (World Precision Instruments) and fire-polished to a resistance between 2 and 4 MΩ when filled with internal solution containing (in mM) 140 CsCl, 2.0 MgCl2, 5 EGTA, and 10 HEPES, pH 7.4 (adjusted with CsOH). Bath solution contained (in mM): 140 NaCl, 5 KCl, 3 EGTA, and 10 HEPES, pH 7.4 adjusted with NaOH. For recordings in keratinocytes, the bath saline consisted of (in mM) 140 NaCl, 5 KCl, 2 MgCl2, 2 CaCl2, 10 glucoses, and 10 HEPES, pH 7.4 adjusted with NaOH, and the pipette solution contained (in mM) 140 CsCl, 5 EGTA, and 10 HEPES, pH 7.3 adjusted with CsOH. For single-channel recordings, the pipette solution and bath solution were symmetrical and contained (in mM) 140 NaCl, 5 KCl, 3 EGTA, and 10 HEPES, pH 7.4. Isolated cells were voltage clamped and held at –60 mV using an EPC10 amplifier with the Patchmaster software (HEKAElectronics, Lambrecht, Germany). For a subset of recordings, currents were amplified using an Axopatch 200B amplifier (Molecular Devices, Sunnyvale, CA) and recorded through a BNC-2090/MIO acquisition system (National Instruments, Austin, TX) using QStudio developed by Dr. Feng Qin at State University of New York at Buffalo. […] As determined by the conductance tests, the solution around a patch under study was fully controlled by the application of a flow rate of 100 μl/min or greater. […]

- TRPV3 currents, of control level (5 μM dyclonine): 52% ± 7%
- TRPV3 currents, of control level (30 μM dyclonine): 13% ± 0.01%
- IC50 (300 μM 2-APB-evoked, read-out: IC50 on TRPV3 currents in cultured keratinocytes): 5.2 ± 0.71 µM
- Hill coefficient nH (keratinocytes): 2.4 ± 0.75
SMILES: CCCCOc1ccc(C(=O)CCN2CCCCC2)cc1 [dyclonine]
